Source: patent US20220323442A1, “ENTERIC-COATED PREPARATION COMPRISING XANTHINE OXIDASE INHIBITOR” (Nippon Chemiphar Co., Ltd., priority 2019, published 2022)

Assay: Volume average particle size (D50) by laser diffraction
Format: physicochemical
Details: amorphous Compound 14 (spray dried), dispersed in 0.2% Aerosol OT aqueous solution, ultrasonic 30 seconds
Excerpt: The volume average particle size (D50) can usually be measured by dispersing the measurement sample in a solvent such as water or ethanol and measuring the particle size distribution by a laser diffraction method. The measurement sample may be dispersed in a solvent by irradiation of ultrasonic waves or the like. The particle size distribution can be measured by a particle size distribution measuring device (for example, Shimadzu laser diffraction type particle size distribution measuring device SALD-2200). The volume average particle size (D50) can be determined from the obtained particle size distribution result. A commercially available software (for example, Shimadzu WingSALD-2200 version 1.02) can be used for data collection and analysis.
A volume average particle size (D50) of the obtained amorphous Compound 14 was measured with a Shimadzu laser diffraction type particle size distribution measuring device SALD-2200 using a dispersion obtained by adding about 2 mg of a sample to a 0.2% Aerosol OT aqueous solution and irradiating the solution with ultrasonic waves for 30 seconds for dispersion. Shimadzu WingSALD-2200 version 1.02 software was used for data collection and analysis. […] The volume average particle size (D50) of amorphous Compound 14 obtained from the particle size distribution was 2.949 μm.

volume average particle size (D50): 2.949 μm
Compound: N#Cc1cc(-c2nc3c(O)ncnc3s2)ccc1Oc1ccccc1 [Compound 14, 2-(3-Cyano-4-phenoxyphenyl)-7-hydroxythiazolo(5,4-d]pyrimidine]
